# Experimental data: patent US20040224995A1 (University of North Texas Health Science Center at Fort …, priority 2003, published 2004)
# pEC50, pKi: −log10 of the molar value.
# Tests used:
# HT-22 cells = test: HT-22 cell viability during glutamate exposure (calcein AM assay); type: cell-based; settings: for neuroprotective effect of prostaglandins against glutamate toxicity: added 24 h before glutamate (15 mM), viability 15 h later
# From the text: Although not wanting to be bound by theory, the toxicity of glutamate in HT-22 (32) and C6 glioma (33) cell lines is mediated through oxidative stress. HT-22 cells lack ionotropic N-methyl-D-aspartate (“NMDA”) glutamate receptors, and the glutamate-induced cell death appears to occur via a slow onset oxidative stress (32,34,35). Glutamate blocks cystine uptake by inhibiting the glutamate/cystine antiporter in both HT-22 (32) and C6 glioma (33) cell lines. Since cysteine is required for glutathione (“GSH”) synthesis, the intracellular concentration of GSH decreases as a consequence. BSO depletes intracellular glutathione by inhibiting γ-glutamylcysteine synthetase, the rate-limiting enzyme in glutathione synthesis (33). […] Troglitazone further protected HT-22 (FIG. 14) and RGC-5 (FIG. 15) against BSO. The cell viability was taken at time points around about 14 to 24 hours post-insult time. In some of the experiments, the viability of cells was determined using 2.5 μM calcein AM assay in phosphate-buffered saline (PBS 1×). After 25 minutes of incubation, live cells were distinguished by the presence of intracellular esterase activity, which cleaves the calcein AM dye, producing a bright green fluorescence, as shown in FIG. 22. Viability was measured in Relative Fluorescent Units (“RFU”), and expressed as percentage of vehicle-treated control values.
# 15d-PGJ2 and two TZD's (e.g. troglitazone and ciglitazone) were tested for their ability to protect HT-22 cells against glutamate toxicity. […] HT-22 cells were treated with 15-dPGJ2 twenty-four hours prior to a glutamate insult (15 mM). […] The data of FIG. 24 was quantified using the calcein AM assay (see FIG. 22). Results are expressed in % survival of the control (non-glutamate-treated) cultures. DMSO received the vehicle only for 15d-PGJ2. Shown are mean±SEM for 6. The asterisk (“*”) indicates p<0.05 vs. respective control.
# In order to conduct these experiments, the following compounds: PGA1; PGA2; PGJ2; Δ^12PGJ2; and 15d-PGJ2 were ordered from Biomol, Plymouth Meeting, Pa. HT-22, an immortalized mouse hippocampal cell line, C6 rat glioma, RGC-5 retinal ganglion cells were used. Cells were grown to confluence in DMEM media, and supplemented with 10% charcoal/dextran-treated fetal bovine serum (“FBS”), and […] gentamycin at 37° C. under 95% air, 5% CO2. HT-22, C6, and RGC-5 cells were plated at a density of 50,000, 35,000, and 10,000 cells/ml, respectively, in 96-well plates. Wells were pre-treated with cyclopentenone PGs at various times prior to being subjected to glutamate, hydrogen peroxide (H2O2), or BSO insults.
# The WY-14643, Ciglitazone, Troglitazone, 9-cis retinoic acid, and 15d-PGJ2 compounds were purchased from Biomol (Plymouth Meeting, Pa.). L-165041 and L-783483 were kindly provided by Merck Laboratories. The cell lines used were HT-22, an immortalized mouse hippocampal cell line, and SK—N—SH, a human neuroblastoma cell line. The HT-22 cells were obtained from David Schubert (Salk Institute, San Diego, Calif.). The HT-22 line was originally selected from HT-4 cells based on glutamate sensitivity. HT-4 cells were immortalized from primary hippocampal neurons using a temperature-sensitive SV-40 T antigen (Morimoto and Koshland, 1990). SK—N—SH were obtained from ATCC (Manassas, Va.). HT-22 and SK—N—SH cells were grown to confluence in DMEM and RPMI-1640 media, respectively, and supplemented with 10% charcoal/dextran-treated fetal bovine serum (FBS), and 5 mg/ml gentamycin at 37° C. under 95% air, 5% CO2. HT-22 cells were plated at a density of 50,000 cells/ml (5,000 cells/well), and SK—N—SH were plated at a density of 120,000 to 150,000 cells/ml (12,000 to 15,000 cells/well) in 96-well plates. In most studies, wells were pre-treated with PPAR ligands over a wide dose range at various times prior to being subjected to either glutamate, hydrogen peroxide (H2O2), or serum deprivation insults. In some studies, the insults were applied prior to the addition of the PPAR ligand. […]
# PPAR-γ = settings: cited from earlier work
# PPAR-β = target: T1, PPAR-β (Homo sapiens, UniProt Q03181); settings: Berger et al., 1999; read-out: EC50 for activation of PPAR-β; cited from earlier work
# T1 sequence (Q03181 1-441): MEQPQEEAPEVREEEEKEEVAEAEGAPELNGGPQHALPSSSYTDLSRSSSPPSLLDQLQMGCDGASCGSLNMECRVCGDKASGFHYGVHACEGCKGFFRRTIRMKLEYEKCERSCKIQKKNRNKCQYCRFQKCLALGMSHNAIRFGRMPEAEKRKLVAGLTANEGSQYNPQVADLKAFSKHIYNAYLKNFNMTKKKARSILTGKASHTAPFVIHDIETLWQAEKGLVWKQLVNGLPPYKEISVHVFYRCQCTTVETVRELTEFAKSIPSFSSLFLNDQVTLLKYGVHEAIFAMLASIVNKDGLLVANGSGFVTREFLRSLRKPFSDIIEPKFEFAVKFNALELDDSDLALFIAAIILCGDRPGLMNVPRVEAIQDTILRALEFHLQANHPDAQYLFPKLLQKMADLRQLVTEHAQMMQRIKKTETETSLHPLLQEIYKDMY
# PPARγ = settings: Berger et al., 1999; cited from earlier work
# [1] = tested on: infarct after MCA occlusion; settings: intraventricular, 660 ng, 30 min before MCA occlusion; Satoh et al.; cited from earlier work
# PPAR alpha = settings: Issemann and Green, 1990; read-out: EC50 for activation of PPAR alpha; cited from earlier work
compound,measurement,setting,value
CC1=C(/C=C/C(C)=C\C=C\C(C)=C\C(=O)O)C(C)(C)CCC1 [9-cis retinoic acid],effect of adding 9-cis retinoic acid on neuroprotection by 15d-PGJ2,"HT-22 cells; 1 μM 9-cis retinoic acid with 15d-PGJ2, glutamate exposure",did not alter the neuroprotective effects
"CC(C)(c1ccc(OCC2CO2)cc1)c1ccc(OCC2CO2)cc1 (stereo not shown) [BADGE, Bisphenol diglycidyl ether]",pKi,PPAR-γ; read-out: Ki value as PPARγ antagonist,4.00
same,toxicity in the cell model,HT-22 cells; at concentrations close to Ki (100 μM),showed some toxicity
CCCc1c(OCCCOc2ccc(OCC(=O)O)cc2)ccc(C(C)=O)c1O [L-165041],effect on glutamate toxicity,"HT-22 cells; 1 nM to 50 μM, pretreated 24 h, glutamate 20 mM",failed to affect glutamate toxicity
same,pEC50,PPAR-β,~6.30
same,concentrations inducing weak activity of PPARγ,PPARγ,> 51 µM
COC(=O)CCCCC/C=C1/C(=O)C=C[C@H]1CCCCCCc1ccc(C)cc1 [NEPP-11],decrease of infarct volume,[1],about 50%
CCCCC[C@H](O)/C=C/[C@H]1C=CC(=O)[C@@H]1CCCCCCC(=O)O [PGA1],neuroprotective effect of prostaglandins against glutamate toxicity,HT-22 cells,neuroprotective effects
CCCCC[C@H](O)/C=C/[C@H]1C=CC(=O)[C@@H]1C/C=C\CCCC(=O)O [PGA2],neuroprotective effect of prostaglandins against glutamate toxicity,HT-22 cells,neuroprotective effects
CCCCC[C@H](O)/C=C/C1=C(C/C=C\CCCC(=O)O)C(=O)CC1 [PGB2],neuroprotective effect of prostaglandins against glutamate toxicity,HT-22 cells,did not display any neuroprotective effects
"Cc1cccc(Nc2cc(Cl)nc(SCC(=O)O)n2)c1C [WY 14,643]",effect at the highest concentration on glutamate toxicity,"HT-22 cells; highest concentration tested, glutamate 20 mM",enhanced glutamate toxicity
same,prevention of glutamate-induced cell death,"HT-22 cells; pretreatment 24 h, 1 to 40 μM, glutamate 20 mM",failed to prevent glutamate-induced cell death
same,pEC50,PPAR alpha,~5.82
"CC1(COc2ccc(CC3SC(=O)NC3=O)cc2)CCCCC1 (stereo not shown) [ciglitazone, 5-[4-(1-methylcyclohexylmethoxy)benzyl]-thiazolidine-2,4-dione]",affinity for PPAR-γ,PPAR-γ; similar to that of 15d-PGJ2,low micromolar (μM) range
same,neuroprotective effects,HT-22 cells; concentrations up to 40 μM,did not have any neuroprotective effects
same,protection against glutamate toxicity,HT-22 cells; pretreatment at various concentrations,failed to protect
